US6552196B2, “Quinolone carboxylic acid derivatives” (Dong Wha Pharmaceutical Industrial Co., Ltd., priority 1997, dated 2003)

Columns and labels:
Assay type in all cases: cell-based
[1] = system: Enterobacter clocae 1321E; experiment: In vitro antibacterial activity (MIC), agar dilution; details: 2-fold agar dilution, Muller-Hinton agar, 18 hours at 37° C.
Method: (§1) 10^7 cfu/ml of bacteria were inoculated and cultured for 18 hours at 37° C. and then the antibacterial activities were measured. For the methicillin resistant strains the activities were measured after 48 hours of cultivation at 30° C. Hoechst Standard strains were used for the testings.

[2] = system: Staphylococcus aureus 503; experiment: as above; details: 2-fold agar dilution, Muller-Hinton agar, 18 hours at 37° C.
Method: as §1

Salmonella typhimurium = experiment: as above; details: 2-fold agar dilution, Muller-Hinton agar, 18 hours at 37° C.
Method: as §1

Esherichia coli DC2 = experiment: as above; details: 2-fold agar dilution, Muller-Hinton agar, 18 hours at 37° C.
Method: as §1

Enterobacter clocae P99 = experiment: as above; details: 2-fold agar dilution, Muller-Hinton agar, 18 hours at 37° C.
Method: as §1

Esherichia coli TEM = experiment: as above; details: 2-fold agar dilution, Muller-Hinton agar, 18 hours at 37° C.
Method: as §1

Esherichia coli DC0 = experiment: as above; details: 2-fold agar dilution, Muller-Hinton agar, 18 hours at 37° C.
Method: as §1

Esherichia coli 1507E = experiment: as above; details: 2-fold agar dilution, Muller-Hinton agar, 18 hours at 37° C.
Method: as §1

[3] = system: Pseudomonas aeruginosa 1771M; experiment: as above
Method: as §1

[4] = system: Staphylococcus aureus SG511; experiment: as above; details: 2-fold agar dilution, Muller-Hinton agar, 18 hours at 37° C.
Method: as §1

[5] = system: Streptococcus pyogens 308A; experiment: as above; details: 2-fold agar dilution, Muller-Hinton agar, 18 hours at 37° C.
Method: as §1

[6] = system: Pseudomonas aeruginosa 1771; experiment: as above; details: 2-fold agar dilution, Muller-Hinton agar, 18 hours at 37° C.
Method: as §1

[7] = system: Pseudomonas aeruginosa 9027; experiment: as above; details: 2-fold agar dilution, Muller-Hinton agar, 18 hours at 37° C.
Method: as §1

[8] = system: Streptococcus faecium MD 8b; experiment: as above; details: 2-fold agar dilution, Muller-Hinton agar, 18 hours at 37° C.
Method: as §1

[9] = system: Streptococcus pyogens 77A; experiment: as above; details: 2-fold agar dilution, Muller-Hinton agar, 18 hours at 37° C.
Method: as §1

[10] = system: Pseudomonas aeruginosa 1592E; experiment: as above; details: 2-fold agar dilution, Muller-Hinton agar, 18 hours at 37° C.
Method: as §1

[11] = system: Klebsiella aerogenes 1522E; experiment: as above; details: 2-fold agar dilution, Muller-Hinton agar, 18 hours at 37° C.
Method: as §1

[12] = system: Staphylococcus aureus 285; experiment: as above; details: 2-fold agar dilution, Muller-Hinton agar, 18 hours at 37° C.
Method: as §1

Klebsiella oxytoca 1082E = experiment: as above; details: 2-fold agar dilution, Muller-Hinton agar, 18 hours at 37° C.
Method: as §1

Esherichia coli 078 = experiment: as above; details: 2-fold agar dilution, Muller-Hinton agar, 18 hours at 37° C.
Method: as §1

[13] = system: Staphylococcus aureus 121E; experiment: In vitro antibacterial activity against resistant strains (MIC); details: resistant strain Staphylococcus aureus 121E; 2-fold agar dilution; methicillin resistant strains 48 hours at 30° C.
Method: as §1

[14] = system: Staphylococcus epidermidis 291; experiment: as above; details: resistant strain Staphylococcus epidermidis 291; 2-fold agar dilution; methicillin resistant strains 48 hours at 30° C.
Method: as §1

[15] = system: Staphylococcus aureus 293; experiment: as above; details: resistant strain Staphylococcus aureus 293; 2-fold agar dilution; methicillin resistant strains 48 hours at 30° C.
Method: as §1

[16] = system: Staphylococcus aureus 694E; experiment: as above; details: resistant strain Staphylococcus aureus 694E; 2-fold agar dilution; methicillin resistant strains 48 hours at 30° C.
Method: as §1

[17] = system: Staphylococcus aureus 208E; experiment: as above; details: resistant strain Staphylococcus aureus 208E; 2-fold agar dilution; methicillin resistant strains 48 hours at 30° C.
Method: as §1

[18] = system: Staphylococcus aureus 303; experiment: as above; details: resistant strain Staphylococcus aureus 303; 2-fold agar dilution; methicillin resistant strains 48 hours at 30° C.
Method: as §1

[19] = system: Staphylococcus aureus 697E; experiment: as above; details: resistant strain Staphylococcus aureus 697E; 2-fold agar dilution; methicillin resistant strains 48 hours at 30° C.
Method: as §1

[20] = system: Staphylococcus aureus 241; experiment: as above; details: resistant strain Staphylococcus aureus 241; 2-fold agar dilution; methicillin resistant strains 48 hours at 30° C.
Method: as §1

[21] = system: Staphylococcus aureus 88E; experiment: as above; details: resistant strain Staphylococcus aureus 88E; 2-fold agar dilution; methicillin resistant strains 48 hours at 30° C.
Method: as §1

[22] = system: Staphylococcus aureus 701E; experiment: as above; details: resistant strain Staphylococcus aureus 701E; 2-fold agar dilution; methicillin resistant strains 48 hours at 30° C.
Method: as §1

[23] = system: Staphylococcus aureus 8236; experiment: as above; details: resistant strain Staphylococcus aureus 8236; 2-fold agar dilution; methicillin resistant strains 48 hours at 30° C.
Method: as §1

[24] = system: Staphylococcus aureus 179; experiment: as above; details: resistant strain Staphylococcus aureus 179; 2-fold agar dilution; methicillin resistant strains 48 hours at 30° C.
Method: as §1

[25] = system: Staphylococcus aureus 692E; experiment: as above; details: resistant strain Staphylococcus aureus 692E; 2-fold agar dilution; methicillin resistant strains 48 hours at 30° C.
Method: as §1

[26] = system: Staphylococcus aureus 690E; experiment: as above; details: resistant strain Staphylococcus aureus 690E; 2-fold agar dilution; methicillin resistant strains 48 hours at 30° C.
Method: as §1

[27] = system: Staphylococcus aureus 695E; experiment: as above; details: resistant strain Staphylococcus aureus 695E; 2-fold agar dilution; methicillin resistant strains 48 hours at 30° C.
Method: as §1

[28] = system: Staphylococcus aureus 693E; experiment: as above; details: resistant strain Staphylococcus aureus 693E; 2-fold agar dilution; methicillin resistant strains 48 hours at 30° C.
Method: as §1

[29] = system: Staphylococcus aureus 703E; experiment: as above; details: resistant strain Staphylococcus aureus 703E; 2-fold agar dilution; methicillin resistant strains 48 hours at 30° C.
Method: as §1

[30] = system: Staphylococcus aureus 256E; experiment: as above; details: resistant strain Staphylococcus aureus 256E; 2-fold agar dilution; methicillin resistant strains 48 hours at 30° C.
Method: as §1

[31] = system: Staphylococcus epidermidis 178; experiment: as above; details: resistant strain Staphylococcus epidermidis 178; 2-fold agar dilution; methicillin resistant strains 48 hours at 30° C.
Method: as §1

[32] = read-out: minimum inhibitory concentration (MIC)

## CON=C1CN(c2c(F)c(N)c3c(=O)c(C(=O)O)cn(C4CC4)c3c2F)CC12CNC2.CS(=O)(=O)O [Example 5, 1-Cyclopropyl-5-amino-6,8-difluoro-7-[8-(methoxyimino)-2,6-diazaspiro[3,41]oct-6-yl]-4-oxo-1,4-dihydro-3-quinolinecarboxylic acid methanesulfonate]
[1]
  minimum inhibitory concentration (MIC): 0.004 µg/mL
[2]
  minimum inhibitory concentration (MIC): <0.002 µg/mL
Salmonella typhimurium
  minimum inhibitory concentration (MIC): <0.002 µg/mL
Esherichia coli DC2
  minimum inhibitory concentration (MIC): 0.013 µg/mL
Enterobacter clocae P99
  minimum inhibitory concentration (MIC): 0.007 µg/mL
Esherichia coli TEM
  minimum inhibitory concentration (MIC): 0.013 µg/mL
Esherichia coli DC0
  minimum inhibitory concentration (MIC): 0.098 µg/mL
Esherichia coli 1507E
  minimum inhibitory concentration (MIC): 0.007 µg/mL
[3]; Pseudomonas aeruginosa 1771M, 2-fold agar dilution, Muller-Hinton agar, 18 hours at 37° C.
  minimum inhibitory concentration (MIC): 0.195 µg/mL
[4]
  minimum inhibitory concentration (MIC): <0.002 µg/mL
[5]
  minimum inhibitory concentration (MIC): 0.025 µg/mL
[6]
  minimum inhibitory concentration (MIC): 0.391 µg/mL
[7]
  minimum inhibitory concentration (MIC): 0.781 µg/mL
[8]
  minimum inhibitory concentration (MIC): 0.025 µg/mL
[9]
  minimum inhibitory concentration (MIC): <0.002 µg/mL
[10]
  minimum inhibitory concentration (MIC): 0.391 µg/mL
[11]
  minimum inhibitory concentration (MIC): 0.025 µg/mL
[12]
  minimum inhibitory concentration (MIC): 0.007 µg/mL
Klebsiella oxytoca 1082E
  minimum inhibitory concentration (MIC): <0.002 µg/mL
Esherichia coli 078
  minimum inhibitory concentration (MIC): <0.002 µg/mL
[13]
  minimum inhibitory concentration (MIC): 0.013 µg/mL
[14]
  minimum inhibitory concentration (MIC): 0.391 µg/mL
[15]
  minimum inhibitory concentration (MIC): 0.098 µg/mL
[16]
  minimum inhibitory concentration (MIC): 0.007 µg/mL
[17]
  minimum inhibitory concentration (MIC): 0.007 µg/mL
[18]
  minimum inhibitory concentration (MIC): 0.098 µg/mL
[19]
  minimum inhibitory concentration (MIC): <0.002 µg/mL
[20]
  minimum inhibitory concentration (MIC): 0.098 µg/mL
[21]
  minimum inhibitory concentration (MIC): 0.007 µg/mL
[22]
  minimum inhibitory concentration (MIC): 0.007 µg/mL
[23]
  minimum inhibitory concentration (MIC): 0.098 µg/mL
[24]
  minimum inhibitory concentration (MIC): 0.098 µg/mL
[25]
  minimum inhibitory concentration (MIC): 0.004 µg/mL
[26]
  minimum inhibitory concentration (MIC): 0.007 µg/mL
[27]
  minimum inhibitory concentration (MIC): 0.007 µg/mL
[28]
  minimum inhibitory concentration (MIC): 0.007 µg/mL
[29]
  minimum inhibitory concentration (MIC): 0.007 µg/mL
[30]
  minimum inhibitory concentration (MIC): 0.007 µg/mL
[31]
  minimum inhibitory concentration (MIC): 0.391 µg/mL

## CON=C1CN(c2cc3c(cc2F)c(=O)c(C(=O)O)cn3-c2ccc(F)cc2F)CC12CNC2.CS(=O)(=O)O.CS(=O)(=O)O [Example 6, 1-(2,4-Difluorophenyl)-6-fluoro-7-[8-(methoxyimino)-2,6-diazaspiro[3,4]oct-6-yl]-4-oxo-1,4-dihydro-3-quinolinecarboxylic acid dimethanesulfonate]
[1]; [32]
  MIC: 0.098 µg/mL
[2]; [32]
  MIC: 0.049 µg/mL
Salmonella typhimurium; Salmonella enterica, read-out: minimum inhibitory concentration (MIC)
  MIC: 0.049 µg/mL
Esherichia coli DC2; [32]
  MIC: 0.098 µg/mL
Enterobacter clocae P99; [32]
  MIC: 0.098 µg/mL
Esherichia coli TEM; [32]
  MIC: 0.195 µg/mL
Esherichia coli DC0; [32]
  MIC: 0.781 µg/mL
Esherichia coli 1507E; [32]
  MIC: 0.195 µg/mL
[3]; Pseudomonas aeruginosa, 1771M, 18 h, read-out: minimum inhibitory concentration (MIC)
  MIC: 1.56 µg/mL
[4]; [32]
  MIC: 0.049 µg/mL
[5]; [32]
  MIC: 0.195 µg/mL
[6]; [32]
  MIC: 1.56 µg/mL
[7]; [32]
  MIC: 3.12 µg/mL
[8]; Enterococcus faecium, MD8B, read-out: minimum inhibitory concentration (MIC)
  MIC: 0.195 µg/mL
[9]; [32]
  MIC: 0.013 µg/mL
[10]; [32]
  MIC: 1.56 µg/mL
[11]; [32]
  MIC: 0.391 µg/mL
[12]; [32]
  MIC: 0.098 µg/mL
Klebsiella oxytoca 1082E; [32]
  MIC: 0.013 µg/mL
Esherichia coli 078; [32]
  MIC: 0.049 µg/mL
